Laboratory results taken from paper PMC10065791 (eLife, 2023).
Read-outs that look alike come from different tables or passages of the source.

How the values were obtained:
[1] = biological target: T1, I84V mutant protease (Human immunodeficiency virus type 1 group M subtype B, UniProt P12497, I572V/Q495K); assay: Ki assay (FRET enzyme inhibition), I84V protease; assay type: biochemical, HIV-1; settings: I84V drug-resistant protease variant
T1 construct: the gene encoding the desired HIV-1 protease was subcloned into the heat-inducible pXC35 expression vector; made in house
Protocol: (§1) The highly mutated, resistant, protease variant genes were purchased on a pET11a plasmid with codon optimization for protein expression in Escherichia coli (Genewiz). A Q7K mutation was included to prevent autoproteolysis ([Rosé et al., 1993]). The expression, isolation, and purification of WT and mutant HIV-1 proteases used for enzymatic assays were carried out as previously described ([Henes et al., 2019]; [King et al., 2002]; [Özen et al., 2014]). Briefly, the gene encoding the desired HIV-1 protease was subcloned into the heat-inducible pXC35 expression vector (ATCC) and transformed into E. coli TAP-106 cells. Cells grown in 6 l of Terrific Broth were lysed with a cell disruptor twice, and the protein was purified from inclusion bodies ([Hui et al., 1993]). Inclusion bodies, isolated as a pellet after centrifugation, were dissolved in 50% acetic acid followed by another round of centrifugation at 19,000 rpm for 30 min to remove insoluble impurities. Size-exclusion chromatography was carried out on a 2.1 l Sephadex G-75 Superfine (Sigma Chemical) column equilibrated with 50% acetic acid to separate high molecular weight proteins from the desired protease. Pure fractions of HIV-1 protease were refolded using a tenfold dilution of refolding buffer (0.05 M sodium acetate at pH 5.5, 5% ethylene glycol, 10% glycerol, and 5 µM DTT). Folded protein was concentrated to 0.5–3 mg/ml and stored. The stored protease was used in KM and Ki assays.
(§2) Enzyme inhibition constants (Ki values) were determined as previously described ([Henes et al., 2019]; [Lockbaum et al., 2019]; [Matayoshi et al., 1990]; [Windsor and Raines, 2015]). Briefly, in a 96-well plate, inhibitors were serially diluted down from […] depending on protease resistance. All samples were incubated with 5 nM protein for 1 hr. A 10-amino acid substrate containing an optimized protease cleavage site ([Windsor and Raines, 2015]), purchased from Bachem, with an EDANS/DABCYL FRET pair was dissolved in 4% DMSO at 120 µM. Using a PerkinElmer Envision plate reader, 5 µl of the 120 µM substrate were added to the 96-well plate to a final concentration of 10 µM. […] Data was analyzed with Prism7.

[2] = biological target: T2, I50V/A71V mutant protease (Human immunodeficiency virus type 1 group M subtype B, UniProt P12497, A559V/I538V/Q495K); assay: Ki assay (FRET enzyme inhibition), I50V/A71V protease; assay type: biochemical, HIV-1; settings: I50V/A71V drug-resistant protease variant
T2 construct: the gene encoding the desired HIV-1 protease was subcloned into the heat-inducible pXC35 expression vector; made in house
Protocol: as §1, §2

[3] = test system: HIV-1 NL4-3 wild-type virus; assay: Selection for resistance in CEMx174 culture with escalating inhibitor, start wild-type virus, Primer ID deep sequencing; assay type: cell-based
Protocol: . The selection experiments were performed under two separate starting conditions: first when the starting virus was generated from the NL4-3 clone (this clone closely approximates the clade B consensus for the protease amino acid sequence and will be referred to as ‘wild type’), then again when the starting virus was a mixture of 26 isogenic viruses each with a single mutation associated with drug resistance in the NL4-3 background. […]. For technical reasons, only five of the selections starting with the mixture of mutants reached an inhibitor concentration as high as 400 nM and are reported here (Figure 2—figure supplement 3).
Resistance mutations selected in the protease coding domain during the escalating selective pressure of increasing PI concentration were examined at various timepoints using a next-generation sequencing (NGS) protocol that included Primer ID with the MiSeq platform ([Zhou et al., 2015]). We first examined the sequence of the most abundant variant in each of the two selection schemes present at the highest inhibitor concentration reached (Figure 2A). For those selections that reached 5 μM, 8–14 mutations were present in the most abundant variant. Typically the next two most abundant variants in the population differed by a single amino acid, and on average the three most abundant variants in the 5 μM cultures accounted for 88% of the total viral population (Figure 2—source data 1). Evolution of resistance followed two pathways, one based on I50V and one based on I84V. In three cultures, V2wt, V5wt, and V2mut (which reached either 4 or 5 μM final drug concentration; V2wt indicates the virus pool selected with UMASS-2 starting with wild-type virus), these two mutations, I84V and I50V, became linked on the same genome (Figure 2A) showing they are not mutually exclusive; […].
(§3) An aliquot of 3 × 10^6 CEMx174 cells was incubated at 37°C for 2–3 hr with 250 µl of a virus stock generated from the HIV-1 infectious molecular clone pNL4-3. The culture volume was then brought to 10 ml with RPMI medium. […] After 48 hr and every 48 hr after, the cells were pelleted by centrifugation and 10 ml of fresh medium and inhibitors were added. When the culture had undergone extensive cytopathic effect (CPE) indicative of viral replication, the supernatant medium and the cells were harvested separately and stored at –80°C. The virus-containing supernatant was used to start the next round of infection, and after several rounds at the initial concentration, the inhibitor concentration was increased 1.5-fold at each subsequent round of virus passage.
We used the PID protocol to prepare MiSeq PID libraries with multiplexed primers. Viral RNA was extracted from plasma samples using the QIAamp viral RNA mini kit (QIAGEN, Hilden, Germany). Complementary DNA (cDNA) was synthesized using a cDNA primer mixture targeting protease (PR) with a block of random nucleotides in each cDNA primer serving as the PID, and SuperScript III RT (Thermo Fisher). After two rounds of bead purification of the cDNA, we amplified the cDNA using a mixture of a forward primer that targeted the upstream coding region, followed by a second round of PCR to incorporate the Illumina adaptor sequences. Gel-purified libraries were pooled and sequenced using the MiSeq 300 base paired-end sequencing protocol (Illumina). The sequencing covered the HIV-1 PR region (HXB2 2648-2914, 3001-3257).
We used the Illumina bcl2fastq pipeline for the initial processing and constructed template consensus sequences (TCSs) with TCS pipeline version 1.33 (https://github.com/SwanstromLab/PID) ([Zhou, 2019]). We then aligned TCSs to an HXB2 reference to remove sequences not at the targeted region or that had large deletions. We used the Entropy tool at LANL (https://www.hiv.lanl.gov/content/sequence/ENTROPY/entropy.html) to calculate entropy for each specimen. The sequencing data is available at NIH Sequencing Read Archive (SRA) under BioProject ID PRJNA853351.

[4] = test system: wild-type virus NL4-3; assay: TZM infection assay (cell culture-based viral inhibition), wild-type virus; set-up: species or system HIV-1; settings: Human immunodeficiency virus 1, NL43; wild-type NL4-3 virus; concentration at time of virus production reducing infectivity by 50%; TZM-bl readout
Protocol: (§4) PI dilutions were prepared by taking 10 µM stocked and performing a fivefold serial dilution using RPMI media (final drug concentration is […]). One dilution of drug was added to each well of a 24-well plate and repeated so each virus would have a full set of dilutions. Viruses for the assay were made by seeding 3 × 10^6 CEM cells in a 24-well plate and incubating with 250 µl of virus at 37°C for 2–3 hr before bringing the culture to 10 ml with RPMI media. After 48 hr, the medium was changed and repeated every 48 hr after until the culture had undergone CPE. Infected CEM cells were collected and diluted so that 1 ml of cells could be plated in each well containing a unique drug dilution. Then 24 hr later the virus supernatant was collected from each well followed by filtering through a […] then placed in –80°C. Viruses were thawed and added to 96-well plates in triplicate. TZM-bl cells were collected and diluted to a concentration of 2 × 10^5 cells/ml, 100 µl were added on top of the pre-plated viruses. Plates were kept in 37°C, 5% CO2 in an incubator for 48 hr. After 48 hr, the cells in the plates were lysed by removing the medium, washing two times with 100 µl PBS, and then lysed with 1× lysis buffer (made from 5× Promega Firefly Lysis Buffer). Plates were frozen for at least 24 hr and then thawed for 2 hr before analyzing with Promega Firefly Luciferase Kit on a luminometer. Data was analyzed with Prism 7 to fit sigmoidal dose–response curves.

[5] = biological target: T3, wild-type NL4-3 protease (Human immunodeficiency virus type 1 group M subtype B, UniProt P12497, Q495K); assay: Ki assay (FRET enzyme inhibition), wild-type protease; assay type: biochemical, HIV-1; settings: limit of detection 5 pM, read-out: Ki WT
T3 construct: the gene encoding the desired HIV-1 protease was subcloned into the heat-inducible pXC35 expression vector; made in house
Protocol: as §1, §2

[6] = test system: virus pool selected to 5000 nM inhibitor; assay: TZM infection assay, inhibitor-selected resistant virus pools; assay type: cell-based, HIV-1; settings: Human immunodeficiency virus 1, read-out: EC50 Viral culture (5000 nM)
Protocol: In addition to the sequence of the terminally selected virus, we validated that selection occurred over the entire course of the selection protocol. […] In comparing the number of mutations present in cultures using the I84V versus the I50V pathway, we noted that on average there were more mutations in the I50V viruses at the intermediate drug concentration compared to the I84V viruses (100 nM, p=0.03), and this trend continued at the higher drug concentration.
as §3, §4

[7] = biological target: T3, wild-type NL4-3 protease; set-up: method as in Lockbaum et al. (ACS Infect Dis. 2019 Feb 8; 5 (2): 316–325); settings: previously reported, ref Lockbaum et al. (ACS Infect Dis. 2019 Feb 8, 5 (2): 316–325), read-out: Ki WT; cited from earlier work
[8] = biological target: T1, I84V mutant protease; set-up: method as in Lockbaum et al. (ACS Infect Dis. 2019 Feb 8; 5 (2): 316–325); settings: I84V drug-resistant protease variant; previously reported; ref Lockbaum et al. (ACS Infect Dis. 2019 Feb 8; 5 (2): 316–325); cited from earlier work
[9] = biological target: T2, I50V/A71V mutant protease; set-up: method as in Lockbaum et al. (ACS Infect Dis. 2019 Feb 8; 5 (2): 316–325); settings: I50V/A71V drug-resistant protease variant; previously reported; ref Lockbaum et al. (ACS Infect Dis. 2019 Feb 8; 5 (2): 316–325); cited from earlier work

## CC[C@H](C)CN(C[C@@H](O)[C@H](Cc1ccccc1)NC(=O)O[C@H]1CO[C@H]2OCC[C@H]21)S(=O)(=O)c1ccc(OC)cc1 [UMASS-2]
[1]
  Ki: < 0.005 nM
[2]
  Ki: 0.015 ± 0.0027 nM
[3]; variant 10F/33F/46I/47V/50V/71V/82I/84V, passage 82, [PI] 5000 nM
  Abundance of variant at the last time point: 37.5%
[3]; variant 28S/32I/33F/46I/47V/50V/71V/82I/84V, passage 82, [PI] 5000 nM
  Abundance of variant at the last time point: 33.5%
[3]; variant 33F/46I/47V/50V/71V/82I/84V, passage 82, [PI] 5000 nM
  Abundance of variant at the last time point: 4.2%
[4]
  EC50: 2.4 ± 0.3 nM
[5]
  Ki: < 0.005 nM

## CCC(CC)CN(C[C@@H](O)[C@H](Cc1ccccc1)NC(=O)O[C@H]1CO[C@H]2OCC[C@H]21)S(=O)(=O)c1ccc(CO)cc1 [UMASS-8]
[1]
  Ki: < 0.005 nM
[2]
  Ki: 0.0554 ± 0.004 nM
[3]; variant 10F/12K/33F/46I/47V/50V/53L/54L/63P/71V/82I/85V, passage 67, [PI] 5000 nM
  Abundance of variant at the last time point: 55.4%
[3]; variant 10F/12K/33F/46I/47V/50V/53L/54L/63P/71V/82I/85V/87K, passage 67, [PI] 5000 nM
  Abundance of variant at the last time point: 0.1%
[3]; variant 10F/33F/46I/47V/50V/53L/54L/63P/71V/82I/85V, passage 67, [PI] 5000 nM
  Abundance of variant at the last time point: 41.9%
[4]
  EC50: 4.2 ± 0.9 nM
[5]
  Ki: < 0.005 nM

## CC(C)CN(C[C@@H](O)[C@H](Cc1ccccc1)NC(=O)O[C@H]1CO[C@H]2OCC[C@H]21)S(=O)(=O)c1ccc(N)cc1 [DRV, Darunavir, reference compound]
[3]; variant 10I/32I/41I/46I/47V/82I/84V/85V, passage 43, [PI] 1350 nM
  Abundance of variant at the last time point: 10.3%
[3]; variant 32I/41I/46I/47V/82I/84V/85V, passage 43, [PI] 1350 nM
  Abundance of variant at the last time point: 62.8%
[3]; variant 32I/41I/46I/47V/82L/84V/85V, passage 43, [PI] 1350 nM
  Abundance of variant at the last time point: 10.1%
[4]
  EC50: 7.7 ± 1.6 nM
[6]
  EC50: > 100000 nM

## CC[C@H](C)CN(C[C@@H](O)[C@H](Cc1ccccc1)NC(=O)O[C@H]1CO[C@H]2OCC[C@H]21)S(=O)(=O)c1ccc(N)cc1 [UMASS-1]
[3]; variant 10I/16E/32I/33F/46I/54L/71V/76V/82I/84V, passage 75, [PI] 5000 nM
  Abundance of variant at the last time point: 55.4%
[3]; variant 10I/16E/32I/33F/46I/54L/71V/76V/82I/84V/91S, passage 75, [PI] 5000 nM
  Abundance of variant at the last time point: 6.2%
[3]; variant 10I/32I/33F/46I/54L/71V/76V/82I/84V, passage 75, [PI] 5000 nM
  Abundance of variant at the last time point: 21.9%
[7]
  Ki: < 0.005 nM
[8]
  Ki: 0.0261 ± 0.0037 nM
[4]
  EC50: 5.9 ± 1 nM
[9]
  Ki: 0.11 ± 0.0088 nM

## CCC(CC)CN(C[C@@H](O)[C@H](Cc1ccccc1)NC(=O)O[C@H]1CO[C@H]2OCC[C@H]21)S(=O)(=O)c1ccc2ncsc2c1 [UMASS-10]
[1]
  Ki: 0.0143 ± 0.0093 nM
[2]
  Ki: 0.0058 ± 0.0011 nM
[3]; variant 10F/13V/33F/43T/46I/47V/50V/54L/71V/77I/82L/88S, passage 77, [PI] 5000 nM
  Abundance of variant at the last time point: 1.6%
[3]; variant 10F/13V/33F/43T/46I/47V/50V/54L/71V/82L/87K/88S, passage 77, [PI] 5000 nM
  Abundance of variant at the last time point: 0.2%
[3]; variant 10F/13V/33F/43T/46I/47V/50V/54L/71V/82L/88S, passage 77, [PI] 5000 nM
  Abundance of variant at the last time point: 91.2%
[4]
  EC50: 4.1 ± 0.9 nM
[5]
  Ki: < 0.005 nM
